We go through 2 molecules from ChEMBL document CHEMBL5608167, “Nanomaterials-based advanced systems for photothermal / photodynamic therapy of oral cancer” (2024).

The test system of one experiment is HeLa. In words: Antitumor activity against human HeLa cells xenografted in mouse model assessed as tumor growth inhibition at 20 mg/kg treated for 10 days relative to control. The format is functional. On the set-up: scale not given: the % may be the effect or the level left. The conditions noted are these: time 10 day.
The subject of a further experiment is CAL-27. Briefly: Inhibition of cell proliferation in human CAL-27 cells at 1uM incubated for 72 hrs by MTT assay relative to control. The format is functional.

SMILES strings stand for the structures.

Consider `CCOCCNC(=O)/C(C)=C\C[C@@]12OC(C)(C)[C@@H]3C[C@@H](C=C4C(=O)c5c(O)c(C/C=C(\C)CCC=C(C)C)c(O)c(CC=C(C)C)c5O[C@]431)C2=O`, for which, in the experiment on HeLa, the Activity amounted to 70%.

Take `NCC(=O)CCC(=O)O` [AMINOLEVULINIC ACID]: the inhibition – broadly, the drop in the measured response relative to a control, in per cent – at 1 µM in the experiment with CAL-27 was 75.4%.
